For test [1], the target named is recombinant GSK3β kinase (Homo sapiens (Human), UniProt P49841). Description: GSK3β kinase assay (Ser/Thr 09 peptide Z-lyte, FRET).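 Note: FRET read-out as coumarin over fluorescein emission ratio, compounds incubated one hour at room temperature, IC50 from dose-response curve fit.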 Format: biochemical.
Procedure: Each compound is dissolved in DMSO as a 10 mM stock and used to prepare compound source plates. Serial dilution (1:3, 11-point dose-response curves from 10 M to 0.0003 M) and compound transfer was performed using the ECHO 550 (Labcyte, Sunnyvale, Calif.) into 1536-well black-walled round bottom plates (Corning).
This is a non-radioactive assay using fluorescence resonance energy transfer (FRET) between coumarin and fluorescein to detect kinase activity which is represented as ratio of coumarin emission/fluorescein emission.
The mixture is allowed to incubate with the representative compounds for one hour at room temperature. All reactions were performed in duplicate. Unphosphorylated (“0% Control”) and phosphorylated (“100% control”) forms of Ser/Thr 18 serve as control reactions.
After incubation, diluted Development Buffer is added to the reaction and allowed to further incubate for one hour at room temperature.
Dose-response curves are generated and inhibitory concentration (IC50) values are calculated using non-linear regression curve fit in the Dotmatics' Studies Software (Bishops Stortford, UK).
The test system of test [2] is SW480 colon carcinoma cells. Description: Cell viability assay (CellTiter-Glo). Format: cell-based, human. As to conditions: Homo sapiens, 96 h, four days, CellTiter-Glo.
Test [3] relates to Wnt activity (SW480 colon carcinoma cells stably expressing the Sp5-Luc reporter gene). Kind of test: Wnt activity screening assay (Sp5-Luc reporter gene assay). Format: cell-based, human. As to conditions: Homo sapiens, 36 to 48 hours. In a few lines:
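SW480 colon carcinoma cells stably carrying a lentiviral luciferase reporter driven by an Sp5 promoter with eight TCF/LEF sites, plated at 4,000 cells/well in DMEM with 1% FBS. Compound exposure for 36–48 h at 37 °C, then luminescence read. Signals normalized to DMSO; EC50 from four-parameter nonlinear fit.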
A general note: Reporter assays use an easily measured gene product as a stand-in for the process of interest.

Test [4] concerns IL-6 in human peripheral blood mononuclear cells (huPBMCs). Kind of test: IL-6 inhibition in LPS-stimulated human peripheral blood mononuclear cells (HTRF). The conditions noted are these: Homo sapiens, PBMC, LPS 50 ng/mL, 22 hours, IL-6 HTRF. Format: cell-based. Summed up: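 Fresh normal human PBMCs at 1×10e6 cells/mL in RPMI with 1% FBS received compound, then 50 ng/mL E. coli 0111:B4 LPS 2 h later, and were incubated a further 22 h at 37° C. IL-6 read by HTRF (665/620 nm ratio), normalized to DMSO; EC50 from 4-parameter fit.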

Test [5] deals with LL29 cells (primary human fibroblasts derived from IPF patients), α-smooth muscle actin. Kind of test: Inhibition of fibrotic process: TGF-β1-treated primary human fibroblasts, αSMA staining.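 Note: controls were TGF-β1-stimulated wells with DMSO vehicle as the positive reference and cells given DMSO alone as the negative reference.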 The test is classed as cell-based. As to conditions: Homo sapiens, Fibroblast, 96 h, TGF-β1 20 ng/mL, 4 days, % cells positive for αSMA.
Test [6] addresses recombinant DYRK1A kinase (Homo sapiens (Human), UniProt Q13627). Description: DYRK1A kinase assay (Ser/Thr 18 peptide Z-lyte, FRET).
Setting [7] is: GSK3β kinase, head says EC50, method says IC50, ATP 46 μM.
Where [8] appears, read: DYRK1A kinase, head says EC50, method says IC50, ATP 30 μM.

Structures are written as SMILES. Like-named read-outs stand apart in the source and are kept apart here.

recombinant GSK3β kinase, sequence (P49841 whole entry): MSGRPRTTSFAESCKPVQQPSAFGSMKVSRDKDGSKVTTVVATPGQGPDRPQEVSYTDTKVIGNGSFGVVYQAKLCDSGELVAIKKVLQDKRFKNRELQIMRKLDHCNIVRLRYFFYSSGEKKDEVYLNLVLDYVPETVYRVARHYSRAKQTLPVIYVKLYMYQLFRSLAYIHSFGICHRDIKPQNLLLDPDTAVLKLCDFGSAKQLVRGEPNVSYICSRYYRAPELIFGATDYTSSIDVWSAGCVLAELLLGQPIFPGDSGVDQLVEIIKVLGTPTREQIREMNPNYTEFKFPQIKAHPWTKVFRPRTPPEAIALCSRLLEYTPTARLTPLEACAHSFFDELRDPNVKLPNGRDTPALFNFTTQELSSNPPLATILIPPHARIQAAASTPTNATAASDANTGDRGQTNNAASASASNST

With `CC(C)Nc1cncc(-c2ccc3cnc(NC(=O)C4CNC4)cc3c2)n1` [Compound 86, N-(6-(6-(Isopropylamino)pyrazin-2-yl)isoquinolin-3-yl)azetidine-3-carboxamide], the EC50 (as a rule, the midpoint of the concentration-response curve) came out at 0.017 µM in test [1]; 3420 nM in test [2]; 1620 nM in test [3]; 1130 nM in test [4]; 204 nM in test [5]; 1 nM in test [6].
For the compound `CC(C)Nc1cncc(-c2ccc3cnc(NC(=O)C4CCNCC4)cc3c2)n1` [Compound 87, N-(6-(6-(Isopropylamino)pyrazin-2-yl)isoquinolin-3-yl)piperidine-4-carboxamide], the EC50 in test [1] (setting [7]) worked out at 0.038 µM; in test [2], 758 nM; in test [3], 201 nM; in test [4] it was 377 nM; in test [5] it was 1920 nM; in test [6] (setting [8]) it was 1 nM.
With `CC(C)Nc1cncc(-c2ccc3cnc(NC(=O)C4CCN(C(C)C)CC4)cc3c2)n1` [Compound 90, 1-isopropyl-N-(6-(6-(isopropylamino)pyrazin-2-yl)isoquinolin-3-yl)piperidine-4-carboxamide], the EC50 in test [1] (setting [7]) turned out to be 0.01 µM; in test [2] it was 465 nM; in test [3], 139 nM; in test [4], 463 nM; in test [5], 37 nM; in test [6] (setting [8]), 1 nM.
Regarding `CC(C)Nc1cncc(-c2ccc3cnc(NC(=O)c4cccc(C5CCNCC5)c4)cc3c2)n1` [Compound 92, N-(6-(6-(Isopropylamino)pyrazin-2-yl)isoquinolin-3-yl)-3-(piperidin-4-yl) benzamide], the EC50 came out at 3.37 µM in test [1] (setting [7]); 235 nM in test [2]; 142 nM in test [3]; 374 nM in test [4]; 3220 nM in test [5]; 9 nM in test [6] (setting [8]).
Turning to `CC(C)Nc1cncc(-c2ccc3cnc(NC(=O)c4cccc(C5CCN(C)CC5)c4)cc3c2)n1` [Compound 93, N-(6-(6-(Isopropylamino)pyrazin-2-yl)isoquinolin-3-yl)-3-(1-methylpiperidin-4-yl)benzamide], the EC50 is 6.55 µM in test [1] (setting [7]); 171 nM in test [2]; 132 nM in test [3]; 811 nM in test [4]; 2240 nM in test [5]; 1 nM in test [6] (setting [8]).
Consider `CC(C)Nc1cncc(-c2ccc3cnc(NC(=O)c4cn(C5CCNCC5)nn4)cc3c2)n1` [Compound 94, N-(6-(6-(isopropylamino)pyrazin-2-yl)isoquinolin-3-yl)-1-(piperidin-4-yl)-1H-1,2,3-triazole-4-carboxamide], for which the half-maximal effective concentration (EC50) amounted to 2.67 µM in test [1] (setting [7]); 46 nM in test [2]; 24 nM in test [3]; 137 nM in test [4]; 103 nM in test [5]; 2 nM in test [6] (setting [8]).
Turning to `CC(C)Nc1cncc(-c2ccc3cnc(NC(=O)c4cn(C5CCN(CCF)CC5)nn4)cc3c2)n1` [Compound 95, 1-(1-(2-fluoroethyl)piperidin-4-yl)-N-(6-(6-(isopropylamino)pyrazin-2-yl)isoquinolin-3-yl)-1H-1,2,3-triazole-4-carboxamide], the EC50 in test [1] (setting [7]) is 6.96 µM; in test [2] it was 1060 nM; in test [3], 34 nM; in test [4], 211 nM; in test [5], 91 nM; in test [6] (setting [8]), 2 nM.
For the compound `CC(C)Nc1cncc(-c2ccc3cnc(NC(=O)c4cn(C5CCN(C(C)C)CC5)nn4)cc3c2)n1` [Compound 96, N-(6-(6-(Isopropylamino)pyrazin-2-yl)isoquinolin-3-yl)-1-(1-isopropylpiperidin-4-yl)-1H-1,2,3-triazole-4-carboxamide], the EC50 in test [1] (setting [7]) came out at 3 µM; in test [2], 91 nM; in test [3], 28 nM; in test [4], 312 nM; in test [5], 152 nM; in test [6] (setting [8]) it was 1 nM.
For the compound `CC(C)Nc1cncc(-c2ccc3cnc(NC(=O)c4ccnc(N5CCN(C)CC5)c4)cc3c2)n1` [Compound 97, N-(6-(6-(Isopropylamino)pyrazin-2-yl)isoquinolin-3-yl)-2-(4-methylpiperazin-1-yl)isonicotinamide], the concentration for a half-maximal effect (EC50) was 6.27 µM in test [1] (setting [7]); 222 nM in test [2]; 7 nM in test [3]; 184 nM in test [4]; 311 nM in test [5]; 2 nM in test [6] (setting [8]).
Turning to `CN(C)C1CN(c2cc(C(=O)Nc3cc4cc(-c5cncc(NC(C)(C)C)n5)ccc4cn3)ccn2)C1` [Compound 98, N-(6-(6-(tert-Butylamino)pyrazin-2-yl)isoquinolin-3-yl)-2-(3-(dimethylamino)azetidin-1-yl)isonicotinamide], the EC50 in test [1] (setting [7]) stood at 4.8 µM; in test [2], 31 nM; in test [3], 24 nM; in test [4], 87 nM; in test [5], 32 nM; in test [6] (setting [8]) it was 2 nM.
Turning to `CN1CC=C(c2cc(C(=O)Nc3cc4cc(-c5cncc(NC(C)(C)C)n5)ccc4cn3)ccn2)CC1` [Compound 99, N-(6-(6-(tert-Butylamino)pyrazin-2-yl)isoquinolin-3-yl)-1′-methyl-1′,2′,3′,6′-tetrahydro-[2,4′-bipyridine]-4-carboxamide], the EC50 in test [1] (setting [7]) is 0.748 µM; in test [2], 43 nM; in test [3], 18 nM; in test [4] it was 125 nM; in test [5] it was 31 nM; in test [6] (setting [8]), 4 nM.
Take `CN1CCN(c2cc(C(=O)Nc3cc4cc(-c5cncc(NC(C)(C)C)n5)ccc4cn3)ccn2)CC1` [Compound 100, N-(6-(6-(tert-Butylamino)pyrazin-2-yl)isoquinolin-3-yl)-2-(4-methylpiperazin-1-yl)isonicotinamide]: the EC50 in test [1] (setting [7]) came to 5.17 µM; in test [2], 111 nM; in test [3], 51 nM; in test [4], 223 nM; in test [5], 45 nM; in test [6] (setting [8]), 4 nM.
Regarding `CC(C)N1CCN(c2cc(C(=O)Nc3cc4cc(-c5cncc(NC(C)(C)C)n5)ccc4cn3)ccn2)CC1` [Compound 101, N-(6-(6-(tert-Butylamino)pyrazin-2-yl)isoquinolin-3-yl)-2-(4-isopropylpiperazin-1-yl)isonicotinamide], the EC50 in test [1] (setting [7]) is greater than 10 µM; in test [2], 61 nM; in test [3], 42 nM; in test [4], 260 nM; in test [5] it was 46 nM; in test [6] (setting [8]), 4 nM.
As to `CC(C)(C)Nc1cncc(-c2ccc3cnc(NC(=O)c4ccnc(N5CCOCC5)c4)cc3c2)n1` [Compound 102, N-(6-(6-(tert-Butylamino)pyrazin-2-yl)isoquinolin-3-yl)-2-morpholinoisonicotinamide], the EC50 in test [1] (setting [7]) is greater than 10 µM; in test [2], 226 nM; in test [3] it was 153 nM; in test [4] it was 401 nM; in test [5], 94 nM; in test [6] (setting [8]), 19 nM.
For `O=C(Nc1cc2cc(-c3cncc(NCC4(F)CNC4)n3)ccc2cn1)C1CC1` [Compound 103, N-(6-(6-(((3-Fluoroazetidin-3-yl)methyl)amino)pyrazin-2-yl)isoquinolin-3-yl)cyclopropanecarboxamide], the concentration giving a half-maximal response (EC50) in test [1] (setting [7]) was determined as 0.003 µM; in test [2], 253 nM; in test [3], 119 nM; in test [4] it was 146 nM; in test [5], 547 nM; in test [6] (setting [8]) it was 1 nM.
For the compound `O=C(Nc1cc2cc(-c3cncc(NCC4(F)CNC4)n3)ccc2cn1)c1ccc(F)cc1` [Compound 104, 4-fluoro-N-(6-(6-(((3-Fluoroazetidin-3-yl)methyl)amino)pyrazin-2-yl)isoquinolin-3-yl)benzamide], the half-maximal effective concentration (EC50) turned out to be 4.39 µM in test [1] (setting [7]); 119 nM in test [2]; 63 nM in test [3]; 1170 nM in test [4]; 284 nM in test [5]; 1 nM in test [6] (setting [8]).
In the case of `O=C(Nc1cc2cc(-c3cncc(NC4CCNCC4)n3)ccc2cn1)C1CCC1` [Compound 105, N-(6-(6-(Piperidin-4-ylamino)pyrazin-2-yl)isoquinolin-3-yl) cyclobutanecarboxamide], the EC50 in test [1] came to 0.056 µM; in test [2] it was 312 nM; in test [3] it was 261 nM; in test [4], 207 nM; in test [5], 226 nM; in test [6], 1 nM.
As to `O=C(Nc1cc2cc(-c3cncc(NC4CCNCC4)n3)ccc2cn1)C1CC(F)(F)C1` [Compound 106, 3,3-Difluoro-N-(6-(6-(piperidin-4-ylamino)pyrazin-2-yl)isoquinolin-3-yl) cyclobutane-1-carboxamide], the EC50 in test [1] (setting [7]) worked out at 0.05 µM; in test [2] it was 8420 nM; in test [3] it was 381 nM; in test [4], 369 nM; in test [5] it was 27 nM; in test [6] (setting [8]), 1 nM.

Values taken from patent US10653688B2, “6-(6-membered heteroaryl and aryl)isoquinolin-3-yl carboxamides and preparation and use thereof” (Samumed, LLC, priority 2017, dated 2020).
